{"source": "paper PMC11724075", "about": "“Small-molecule-induced ERBB4 activation to treat heart failure” (Nature Communications, 2025)", "key": {"ERBB2/ERBB3": {"biological_target": "T1, ERBB2/ERBB3 (Homo sapiens, UniProt P21860)", "T1 construct": "host or cells: U2OS (osteosarcoma cells), PathHunter engineered line", "experiment": "PathHunter U2OS ERBB2/ERBB3 dimerization assay", "type": "cell-based", "conditions": "for ERBB3/ERBB2 dimerization signal: relative to signal with 0.1 µM NRG1, single biological replicates", "protocol": "(§1) PathHunter U2OS ERBB4/ERBB4 (osteosarcoma cells; Eurofins, 93-0961C3), U2OS ERBB2/ERBB4 (osteosarcoma cells; Eurofins, 493-0960C3), ERBB2/ERBB3 (osteosarcoma cells; Eurofins, 93-1042C3) and ERBB1/ERBB1 (osteosarcoma cells; Eurofins, 93-0989C3) dimerization cell lines were cultured according to the manufacturer’s instructions. Briefly, cells were cultured in Cell Culture Reagent 103 (Eurofins, 92-3103 G) supplemented with 250 µg/mL Hygromycin B (Eurofins, 92-0029) and 500 µg/mL G418 (Eurofins, 92-0030), and were maintained at 37 °C in humidified atmosphere of 5% CO2. HCFs (Innoprot, P10454) were cultured in fibroblast medium (Innoprot, P60108) supplemented with 10% (v/v) fetal bovine serum (FBS, Innoprot), 10% (v/v) fibroblast growth supplement (Innoprot), and 1% (v/v) penicillin/streptomycin solution (Innoprot). iAMs[33] (kindly provided by LUMC) were cultured in Advanced DMEM F-12 (Thermo Fisher Scientific, 12634028) supplemented with 2% (v/v) heat-inactivated FBS (Thermo Fisher Scientific, 10270106), 1% (v/v) penicillin/streptomycin (10,000 units/mL and 10 mg/mL respectively, Thermo Fisher Scientific, 15140122), 1× GlutaMAX (Thermo Fisher Scientific, 35050061), and 100 ng/mL doxycycline (Tocris, 4090) for proliferation. To induce differentiation, iAMs were transferred to medium without doxycycline.\n(§2) U2OS ERBB4/ERBB4 dimerization cells were seeded at a density of 5 × 10^4 cells/well in 100 µL Cell Plating 0 Reagent, in white 96-well plates (PerkinElmer, 6005680) and incubated for 24 h at 37 °C, 5% CO2. […] Next, 110 µL PathHunter Flash Detection Reagent was added to each well and incubated at RT for 1 h after which the luminescence signal was measured using the Luminoskan Ascent (Thermo Fisher Scientific). […] The same experimental set-up was used for the U2OS ERBB2/ERBB4, U2OS ERBB2/ERBB3 and U2OS ERBB1/ERBB1 dimerization cell lines."}, "ERBB1/ERBB1": {"biological_target": "T2, ERBB1/ERBB1 (Homo sapiens, UniProt P00533)", "T2 construct": "host or cells: U2OS (osteosarcoma cells), PathHunter engineered line", "experiment": "PathHunter U2OS ERBB1/ERBB1 dimerization assay", "type": "cell-based", "conditions": "for ERBB1/ERBB1 dimerization signal: relative to signal with EGF, single biological replicates", "protocol": "as §1, §2"}, "Erbb4-null mice": {"test_system": "Erbb4-null mice", "experiment": "AngII-treated Erbb4-null mice, echocardiography", "type": "in vivo, mouse", "conditions": "AngII/EF-1", "description": "Floxed Erbb4 mice (Erbb4^f/f; C57BL/6N; 129-Erbb4tm1Fej/Mmucd, MMRRC, #010439-UCD) were crossed with CAGGCre-ER^TM mice (Jackson Laboratory, 004682) containing the Tg(CAG-cre/Esr1*)5Amc transgene that expresses Cre recombinase under the control of a chicken beta actin promoter/enhancer coupled to the human cytomegalovirus immediate-early gene enhancer, resulting in expression of tamoxifen-inducible Cre-ERT in most cell types. To induce Cre recombinase-mediated deletion of Erbb4, eleven-week-old female and male iCAGGCre-ER^TM/Erbb4^f/f mice were intraperitoneally injected with tamoxifen (Merck, T5648; 10 mg/kg; in corn oil) daily for 5 consecutive days.\nEchocardiography was performed using the Vevo F2-LAZRX (FUJIFILM VisualSonics) and UHF57x probe. Mice were anesthetized with 1.5% isoflurane (Alvira, BE-V512222). Parasternal long-axis B-mode images and M-mode images were obtained and analyzed using VevoLAB software (FUJIFILM VisualSonics, Version 5.7.1). For the AngII experiments, measurements were obtained through analysis of the short-axis M-mode. For the MI experiments, measurements were obtained through analysis of the parasternal long-axis B-mode, of which the area and end-volume of the left ventricular cavity in diastole and systole were determined by tracing the endocardial border. Acquisitions, measurements and analyses were performed blinded.\nSupplementary Table 2. Echocardiographic parameters. Echocardiographic parameters obtained through the analysis of the M-mode short-axis views. (a) Male and (b) female wild-type mice treated […]\nmice in EF-1 group). (c) Male wild-type mice treated with AngII and NA-1 (n=5 male mice in Ctrl and AngII/Veh group, n=4 male mice in AngII/NA -1 group). (d) Comparison between wild-type and Erbb4-null mice (n=10 male and female wild -type mice and n=6 male and female Erbb4-null mice). (e) Male […]\nEchocardiographic parameters were measured weekly\n(indicated by ‘T’). All data are presented as mean (value of individual mice) ± SD, two-tailed unpaired […]\n1 groups. Source data are provided as a Source Data file. AngII, angiotensin II; ANOVA, analysis of variance; Ctrl, control; DOX, doxorubicin; EF, ejection fraction; ERBB4, erythroblastic leukemia viral oncogene homolog 4; FS, fractional shortening; IVSd, interventricular septum thickness in diastole; IVSs, interventricular septum thickness in systole; LVIDd, left ventricular internal diameter in diastole; LVIDs, left ventricular internal diameter in systole; LVPWd, left ventricular posterior wall thickness in diastole; LVPWs, left ventricular posterior wall thickness in systole; MI, myocardial infarction; NA, non-activating pharmacophore-containing compound; SD, standard variation; Veh, vehicle."}, "[1]": {"conditions": "Male and female Erbb4-null mice"}, "[2]": {"conditions": "male and female Erbb4-null mice, mean ± SD"}}, "note": "Values joined by “and” are separate entries in the source; they are usually repeats but may differ in a detail not shown here. Equal entries are not always repeated.", "data": [{"smiles": "O=C(NC1CC1)C(Sc1nc2ccccc2c(=O)n1C1CCCC1)c1ccccc1", "note": "(stereo not drawn) [EF-1]", "values": [{"measurement": "EC50", "setting": "ERBB2/ERBB3", "result": "> 32", "unit": "µM"}, {"measurement": "stimulatory effect on ERBB2/ERBB3 heterodimerization (in words)", "setting": "ERBB2/ERBB3", "result": "lower compared to ERBB4 homodimerization"}, {"measurement": "ERBB3/ERBB2 dimerization signal", "setting": "ERBB2/ERBB3; 3.125e-8 M", "result": 0}, {"measurement": "ERBB3/ERBB2 dimerization signal", "setting": "ERBB2/ERBB3; 6.25e-8 M", "result": "4.35 and 0.16 and -2.68 and -0.63 and -0.56"}, {"measurement": "ERBB3/ERBB2 dimerization signal", "setting": "ERBB2/ERBB3; 1.25e-7 M", "result": "2.37 and 0.16 and -2.68 and -1.68 and -1.97"}, {"measurement": "ERBB3/ERBB2 dimerization signal", "setting": "ERBB2/ERBB3; 2.5e-7 M", "result": "0.62 and 4.11 and 0.43 and -3.27 and -3.43"}, {"measurement": "ERBB3/ERBB2 dimerization signal", "setting": "ERBB2/ERBB3; 5e-7 M", "result": "0.97 and 1.82 and 6.28 and 0.82 and -2.96 and -1.11"}, {"measurement": "ERBB3/ERBB2 dimerization signal", "setting": "ERBB2/ERBB3; 1e-6 M", "result": "0.96 and 9.29 and 2.03 and -1.53 and -0.18"}, {"measurement": "ERBB3/ERBB2 dimerization signal", "setting": "ERBB2/ERBB3; 2e-6 M", "result": "1.34 and 1.02 and 9.84 and 3.13 and 0.57 and 2.12"}, {"measurement": "ERBB3/ERBB2 dimerization signal", "setting": "ERBB2/ERBB3; 4e-6 M", "result": "3.1 and 10.27 and 4.36 and 4.61 and 5.16"}, {"measurement": "ERBB3/ERBB2 dimerization signal", "setting": "ERBB2/ERBB3; 8e-6 M", "result": "4.89 and 3.3 and 12.92 and 4.35 and 9.79 and 9.65"}, {"measurement": "ERBB3/ERBB2 dimerization signal", "setting": "ERBB2/ERBB3; 1.6e-5 M", "result": "11.23 and 14.98 and 10.81 and 10.98 and 13.88"}, {"measurement": "ERBB3/ERBB2 dimerization signal", "setting": "ERBB2/ERBB3; 3.2e-5 M", "result": "23.82 and 14.98 and 24 and 17.43 and 15.59 and 14.95"}, {"measurement": "EC50", "setting": "ERBB1/ERBB1", "result": "> 32", "unit": "µM"}, {"measurement": "ERBB1/ERBB1 dimerization signal", "setting": "ERBB1/ERBB1; 3.125e-8 M", "result": 0}, {"measurement": "ERBB1/ERBB1 dimerization signal", "setting": "ERBB1/ERBB1; 6.25e-8 M", "result": "8.38 and 6.13 and 6.6 and 7.02 and 4.04 and 2.46"}, {"measurement": "ERBB1/ERBB1 dimerization signal", "setting": "ERBB1/ERBB1; 1.25e-7 M", "result": "4.23 and 2.21 and 2.75 and 1.65 (2×) and 1.93"}, {"measurement": "ERBB1/ERBB1 dimerization signal", "setting": "ERBB1/ERBB1; 2.5e-7 M", "result": "5.73 and 2.08 and 2.79 and 4.91 and 2.29 and 1.1"}, {"measurement": "ERBB1/ERBB1 dimerization signal", "setting": "ERBB1/ERBB1; 5e-7 M", "result": "5.49 and 1.35 and 1.39 and 3.65 and 1.57 and 0.45"}, {"measurement": "ERBB1/ERBB1 dimerization signal", "setting": "ERBB1/ERBB1; 1e-6 M", "result": "6.08 and 3.69 and 2.97 and 5.23 and 2.17 and 1.53"}, {"measurement": "ERBB1/ERBB1 dimerization signal", "setting": "ERBB1/ERBB1; 2e-6 M", "result": "8.8 and 4.67 and 6.18 and 5.92 and 4.48 and 3.39"}, {"measurement": "ERBB1/ERBB1 dimerization signal", "setting": "ERBB1/ERBB1; 4e-6 M", "result": "15.68 and 13.03 and 10.62 and 10.47 and 7.22 and 7.25"}, {"measurement": "ERBB1/ERBB1 dimerization signal", "setting": "ERBB1/ERBB1; 8e-6 M", "result": "28.31 and 23.51 and 19.8 and 20.63 and 14.67 and 14.01"}, {"measurement": "ERBB1/ERBB1 dimerization signal", "setting": "ERBB1/ERBB1; 1.6e-5 M", "result": "47.08 and 37.9 and 37.11 and 43.5 and 44.59 and 32.06"}, {"measurement": "ERBB1/ERBB1 dimerization signal", "setting": "ERBB1/ERBB1; 3.2e-5 M", "result": "67.98 and 64.53 and 62.88 and 78.66 and 59.73 and 53.27"}, {"measurement": "FS", "setting": "Erbb4-null mice; [1]", "result": "5.8 ± 3.5", "unit": "%"}, {"measurement": "IVSd", "setting": "Erbb4-null mice; [1]", "result": "1.0 ± 0.3", "unit": "mm"}, {"measurement": "IVSs", "setting": "Erbb4-null mice; [1]", "result": "1.2 ± 0.5", "unit": "mm"}, {"measurement": "LVIDd", "setting": "Erbb4-null mice; [1]", "result": "5.8 ± 0.3", "unit": "mm"}, {"measurement": "LVIDs", "setting": "Erbb4-null mice; [1]", "result": "5.5 ± 0.5", "unit": "mm"}, {"measurement": "LVPWd", "setting": "Erbb4-null mice; [1]", "result": "1.0 ± 0.4", "unit": "mm"}, {"measurement": "LVPWs", "setting": "Erbb4-null mice; [1]", "result": "1.1 ± 0.4", "unit": "mm"}, {"measurement": "FS", "setting": "Erbb4-null mice; [2]", "result": "5.8 ± 3.5", "unit": "%"}, {"measurement": "IVSd", "setting": "Erbb4-null mice; [2]", "result": "1.0 ± 0.3", "unit": "mm"}, {"measurement": "IVSs", "setting": "Erbb4-null mice; [2]", "result": "1.2 ± 0.5", "unit": "mm"}, {"measurement": "LVIDd", "setting": "Erbb4-null mice; [2]", "result": "5.8 ± 0.3", "unit": "mm"}, {"measurement": "LVIDs", "setting": "Erbb4-null mice; [2]", "result": "5.5 ± 0.5", "unit": "mm"}, {"measurement": "LVPWd", "setting": "Erbb4-null mice; [2]", "result": "1.0 ± 0.4", "unit": "mm"}, {"measurement": "LVPWs", "setting": "Erbb4-null mice; [2]", "result": "1.1 ± 0.4", "unit": "mm"}]}]}
